In ChEMBL document CHEMBL3632552, “Discovery of (phenoxy-2-hydroxypropyl)piperidines as a novel class of voltage-gated sodium channel 1.7 inhibitors” (Bioorg Med Chem Lett, 2015):

Legend:
[1] = molecular target: Sodium channel protein type 1 subunit alpha (Homo sapiens, UniProt P35498); experiment: Inhibition of human NaV1.1 by IonWorks quattro automated electrophysiology assay
[2] = molecular target: Sodium channel protein type 9 subunit alpha (Mus musculus, UniProt Q62205); experiment: Inhibition of mouse NaV1.7 by IonWorks quattro automated electrophysiology assay
Sequence of Sodium channel protein type 9 subunit alpha (Mus musculus, UniProt Q62205) (Q62205 whole entry): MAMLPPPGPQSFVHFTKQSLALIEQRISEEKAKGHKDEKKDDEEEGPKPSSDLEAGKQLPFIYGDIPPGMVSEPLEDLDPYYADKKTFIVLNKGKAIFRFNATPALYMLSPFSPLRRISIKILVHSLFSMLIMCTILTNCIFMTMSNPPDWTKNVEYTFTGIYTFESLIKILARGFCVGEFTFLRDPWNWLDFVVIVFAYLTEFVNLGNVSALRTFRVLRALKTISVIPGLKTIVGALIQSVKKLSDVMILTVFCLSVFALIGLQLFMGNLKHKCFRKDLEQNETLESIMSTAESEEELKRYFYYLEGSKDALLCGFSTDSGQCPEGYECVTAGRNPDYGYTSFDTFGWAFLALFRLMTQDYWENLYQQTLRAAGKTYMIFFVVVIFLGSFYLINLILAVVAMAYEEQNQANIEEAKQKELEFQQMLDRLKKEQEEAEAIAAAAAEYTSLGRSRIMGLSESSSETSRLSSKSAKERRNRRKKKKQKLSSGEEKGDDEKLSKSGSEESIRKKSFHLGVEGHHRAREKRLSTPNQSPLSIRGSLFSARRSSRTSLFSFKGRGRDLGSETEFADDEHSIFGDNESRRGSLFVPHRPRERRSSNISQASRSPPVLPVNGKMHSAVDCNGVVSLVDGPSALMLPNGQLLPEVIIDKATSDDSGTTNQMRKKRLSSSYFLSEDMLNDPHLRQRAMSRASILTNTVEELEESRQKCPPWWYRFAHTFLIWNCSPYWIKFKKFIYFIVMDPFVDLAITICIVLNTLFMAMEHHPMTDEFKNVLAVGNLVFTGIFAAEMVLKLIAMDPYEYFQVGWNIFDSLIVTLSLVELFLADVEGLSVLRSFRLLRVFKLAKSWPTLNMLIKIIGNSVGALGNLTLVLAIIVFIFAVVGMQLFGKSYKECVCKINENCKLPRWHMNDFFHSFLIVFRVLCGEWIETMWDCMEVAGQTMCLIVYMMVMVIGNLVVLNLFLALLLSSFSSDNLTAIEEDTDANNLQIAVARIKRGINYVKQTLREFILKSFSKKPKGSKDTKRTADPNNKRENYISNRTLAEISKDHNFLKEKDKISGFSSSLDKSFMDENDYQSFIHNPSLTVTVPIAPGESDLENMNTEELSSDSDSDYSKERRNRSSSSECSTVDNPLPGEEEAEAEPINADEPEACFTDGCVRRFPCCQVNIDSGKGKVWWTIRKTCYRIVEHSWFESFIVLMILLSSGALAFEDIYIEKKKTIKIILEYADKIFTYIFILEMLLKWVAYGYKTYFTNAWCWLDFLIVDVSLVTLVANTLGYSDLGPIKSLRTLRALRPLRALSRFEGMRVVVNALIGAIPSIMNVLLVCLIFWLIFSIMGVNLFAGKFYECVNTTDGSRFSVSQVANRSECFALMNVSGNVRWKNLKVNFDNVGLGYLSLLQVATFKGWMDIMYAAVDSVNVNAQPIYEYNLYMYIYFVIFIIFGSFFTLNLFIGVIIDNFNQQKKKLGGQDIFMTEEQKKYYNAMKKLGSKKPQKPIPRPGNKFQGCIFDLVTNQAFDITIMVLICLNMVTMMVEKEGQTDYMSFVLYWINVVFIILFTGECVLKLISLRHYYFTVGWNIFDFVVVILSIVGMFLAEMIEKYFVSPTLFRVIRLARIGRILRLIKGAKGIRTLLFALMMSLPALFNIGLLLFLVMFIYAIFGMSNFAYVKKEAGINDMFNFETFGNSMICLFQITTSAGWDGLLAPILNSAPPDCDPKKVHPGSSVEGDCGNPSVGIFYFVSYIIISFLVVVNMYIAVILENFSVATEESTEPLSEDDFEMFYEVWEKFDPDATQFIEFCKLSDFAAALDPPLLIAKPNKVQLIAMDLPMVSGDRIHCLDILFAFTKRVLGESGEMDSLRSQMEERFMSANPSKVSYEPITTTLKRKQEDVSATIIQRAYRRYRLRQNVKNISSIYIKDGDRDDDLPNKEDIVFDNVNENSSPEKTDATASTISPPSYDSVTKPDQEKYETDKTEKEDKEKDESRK

[3] = molecular target: Sodium channel protein type 9 subunit alpha (Homo sapiens, UniProt Q15858); experiment: Inhibition of human NaV1.7 by IonWorks quattro automated electrophysiology assay
[4] = molecular target: Sodium channel protein type 5 subunit alpha (Homo sapiens, UniProt Q14524); experiment: Inhibition of human NaV1.5 by IonWorks quattro automated electrophysiology assay
Sequence of Sodium channel protein type 5 subunit alpha (Q14524 whole entry): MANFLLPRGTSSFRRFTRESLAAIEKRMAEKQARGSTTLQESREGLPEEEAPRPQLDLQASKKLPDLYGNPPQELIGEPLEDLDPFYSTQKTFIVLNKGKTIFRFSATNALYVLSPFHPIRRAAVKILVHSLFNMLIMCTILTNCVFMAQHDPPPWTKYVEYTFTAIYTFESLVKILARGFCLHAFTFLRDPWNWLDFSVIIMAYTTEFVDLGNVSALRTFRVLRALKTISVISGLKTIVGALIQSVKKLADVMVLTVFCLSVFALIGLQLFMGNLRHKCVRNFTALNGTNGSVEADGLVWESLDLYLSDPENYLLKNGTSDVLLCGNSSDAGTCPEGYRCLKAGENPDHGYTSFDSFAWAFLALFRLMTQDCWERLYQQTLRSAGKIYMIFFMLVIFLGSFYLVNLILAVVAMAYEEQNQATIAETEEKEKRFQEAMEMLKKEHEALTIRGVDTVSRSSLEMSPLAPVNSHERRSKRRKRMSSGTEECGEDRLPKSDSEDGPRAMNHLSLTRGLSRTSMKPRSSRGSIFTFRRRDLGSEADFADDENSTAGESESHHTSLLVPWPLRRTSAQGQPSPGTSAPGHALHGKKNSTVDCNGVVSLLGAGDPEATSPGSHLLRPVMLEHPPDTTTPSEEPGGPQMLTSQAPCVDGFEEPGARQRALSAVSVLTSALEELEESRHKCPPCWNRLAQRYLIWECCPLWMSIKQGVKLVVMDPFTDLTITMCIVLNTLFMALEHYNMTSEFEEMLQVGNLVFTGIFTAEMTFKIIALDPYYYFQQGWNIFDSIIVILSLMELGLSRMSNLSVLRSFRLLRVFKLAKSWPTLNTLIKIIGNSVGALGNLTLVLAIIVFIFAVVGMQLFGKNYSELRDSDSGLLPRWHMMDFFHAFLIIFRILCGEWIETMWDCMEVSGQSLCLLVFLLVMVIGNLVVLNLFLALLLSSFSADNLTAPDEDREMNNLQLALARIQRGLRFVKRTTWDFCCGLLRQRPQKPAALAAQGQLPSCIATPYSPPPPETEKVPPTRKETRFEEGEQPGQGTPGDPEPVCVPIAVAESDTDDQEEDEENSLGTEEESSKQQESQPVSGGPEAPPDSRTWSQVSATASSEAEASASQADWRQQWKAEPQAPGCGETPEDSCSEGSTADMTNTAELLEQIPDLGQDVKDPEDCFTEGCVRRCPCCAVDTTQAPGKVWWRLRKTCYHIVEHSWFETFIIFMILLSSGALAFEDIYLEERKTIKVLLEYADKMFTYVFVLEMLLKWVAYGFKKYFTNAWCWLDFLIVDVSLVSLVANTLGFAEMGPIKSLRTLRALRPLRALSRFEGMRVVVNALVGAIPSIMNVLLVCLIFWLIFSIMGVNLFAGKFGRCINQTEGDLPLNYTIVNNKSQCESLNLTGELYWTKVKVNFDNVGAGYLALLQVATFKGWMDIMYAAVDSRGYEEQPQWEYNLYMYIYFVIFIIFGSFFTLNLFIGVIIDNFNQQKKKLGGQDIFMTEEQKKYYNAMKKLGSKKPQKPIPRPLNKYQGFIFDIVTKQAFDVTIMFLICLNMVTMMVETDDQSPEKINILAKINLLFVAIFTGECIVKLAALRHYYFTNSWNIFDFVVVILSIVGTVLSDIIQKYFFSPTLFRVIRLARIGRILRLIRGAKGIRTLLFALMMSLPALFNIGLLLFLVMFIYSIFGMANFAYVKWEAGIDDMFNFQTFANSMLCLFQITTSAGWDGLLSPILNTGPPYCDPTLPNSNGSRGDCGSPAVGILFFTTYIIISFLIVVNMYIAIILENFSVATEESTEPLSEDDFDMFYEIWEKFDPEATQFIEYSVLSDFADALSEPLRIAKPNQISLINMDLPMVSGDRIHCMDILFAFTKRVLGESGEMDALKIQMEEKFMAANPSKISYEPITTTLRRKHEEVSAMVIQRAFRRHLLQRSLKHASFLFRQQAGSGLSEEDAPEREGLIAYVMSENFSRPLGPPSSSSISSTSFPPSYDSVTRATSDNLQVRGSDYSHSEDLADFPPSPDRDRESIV

[5] = molecular target: Sodium channel protein type 1 subunit alpha (Mus musculus, UniProt A2APX8); experiment: Inhibition of mouse NaV1.1 by IonWorks quattro automated electrophysiology assay
[6] = Tmax in db/db mouse at 30 mg/kg, po; type: ADME, organism-based; settings: in vivo
[7] = AUC in db/db mouse at 30 mg/kg, po; type: ADME, organism-based; settings: in vivo
Plasma = experiment: Fraction unbound in mouse plasma; type: ADME, cell-free
[8] = Cmax in db/db mouse at 30 mg/kg, po; type: ADME, organism-based; parameters: dose 30 mg/kg, route oral; settings: in vivo
Mus musculus [9] = organism: Mus musculus; experiment: Analgesic activity in mouse assessed as inhibition of acetic acid-induced writhing response; type: functional
Mus musculus [10] = experiment: Toxicity in po dosed mouse assessed as reduction of locomotor activity; type: organism-based; settings: in vivo
[11] = Therapeutic index, ratio of toxic ID50 in mouse to analgesic activity ED50 in mouse; type: organism-based; settings: in vivo, read-out: TI
[12] = Tmax in CD mouse at 30 mg/kg, po; type: ADME, organism-based; settings: in vivo
[13] = Cmax in CD mouse at 30 mg/kg, po; type: ADME, organism-based; parameters: dose 30 mg/kg, route oral; settings: in vivo
[14] = AUC in CD mouse at 30 mg/kg, po; type: ADME, organism-based; settings: in vivo
Mus musculus [15] = experiment: Toxicity in mouse assessed as reduction of locomotor activity at 100 mg/kg, po; type: organism-based; settings: in vivo

SMILES	IC50 [1]	IC50 [2]	IC50 [3]	IC50 [4]	also measured
COc1ccc(OCC(O)CN2CCC(N3Cc4ccccc4C3=O)CC2)cc1 (stereo not given)	2.7 µM	1.3 µM	1.8 µM	13 µM	–
COc1cccc(OCC(O)CN2CCC(N3Cc4ccccc4C3=O)CC2)c1 (stereo not given)	3 µM	0.91 µM	1.4 µM	10 µM	–
O=C(c1ccccc1)c1ccccc1OCC(O)CN1CCC(N2C(=O)Cc3ccccc32)CC1 (stereo not given)	26 µM	5 µM	9.4 µM	33 µM	–
COc1cc(C(F)(F)F)ccc1COCC(O)CN1CCC(C(=O)Nc2ccccc2)CC1 (stereo not given)	3.3 µM	1.3 µM	1.7 µM	16 µM	IC50 [5]: 2.4 µM; Tmax [6]: 30 min; AUC [7]: 0.303 µg·h/mL; Fu (Plasma): 4.18%; Cmax [8]: 0.161 µg/mL; ED50 (Mus musculus [9]): 19 mg/kg; ID50 (Mus musculus [10]): 111 mg/kg; selectivity ratio [11]: 5.8
O=C(c1ccccc1)c1ccccc1OCC(O)CN1CCC(N2C(=O)COc3ccccc32)CC1 (stereo not given)	4.8 µM	1.3 µM	1.1 µM	5.2 µM	–
O=C(NC1CCN(CC(O)COc2ccc(C(F)(F)F)cc2)CC1)c1ccccc1 (stereo not given)	0.8 µM	0.4 µM	0.7 µM	1.1 µM	–
COc1cc(C(F)(F)F)ccc1OCC(O)CN1CCC(N2Cc3ccccc3C2=O)CC1 (stereo not given)	0.91 µM	0.33 µM	0.48 µM	5.6 µM	–
O=C(c1ccccc1)c1ccccc1OCC(O)CN1CCN(c2cccc3[nH]c(=O)oc23)CC1 (stereo not given)	> 33 µM	31 µM	24 µM	> 33 µM	–
O=C1COc2c(cccc2C2CCN(CC(O)COc3ccccc3C(=O)c3ccccc3)CC2)N1 (stereo not given)	4.4 µM	2.1 µM	0.78 µM	7 µM	–
O=C(c1ccccc1)c1ccccc1OCC(O)CN1CCC(C(=O)Nc2ccccc2)CC1 (stereo not given)	4.3 µM	1 µM	1.2 µM	1.9 µM	–
O=C1CCc2c(cccc2C2CCN(CC(O)COc3ccccc3C(=O)c3ccccc3)CC2)N1 (stereo not given)	7.1 µM	16 µM	1.3 µM	18 µM	–
O=C1c2ccccc2CN1C1CCN(CC(O)COc2ccc(C(F)(F)F)cc2)CC1 (stereo not given)	1.8 µM	0.1 µM	0.5 µM	2.8 µM	–
O=C(NC1CCN(CC(O)COc2ccccc2C(=O)c2ccccc2)CC1)c1ccccc1 (stereo not given)	3.2 µM	0.92 µM	1.1 µM	4.9 µM	–
O=C1c2ccccc2CN1C1CCN(CC(O)COCc2ccc(C(F)(F)F)cc2)CC1 (stereo not given)	3 µM	1.5 µM	1.1 µM	3 µM	–
O=C(c1ccccc1)c1cccc(OCC(O)CN2CCC(N3Cc4ccccc4C3=O)CC2)c1 (stereo not given)	0.92 µM	0.96 µM	0.9 µM	3.7 µM	IC50 [5]: 0.69 µM; Tmax [12]: 30 min; Fu (Plasma): 1.99%; Cmax [13]: 0.169 µg/mL; AUC [14]: 0.525 µg·h/mL
Cc1cccc(C)c1OCC(C)N.Cl (stereo not given) [MEXILETINE HYDROCHLORIDE]	11 µM	11 µM	–	–	IC50 [5]: 21 µM; ED50 (Mus musculus [9]): 21 mg/kg; ID50 (Mus musculus [10]): 45 mg/kg
O=C1c2ccccc2CN1C1CCN(CC(O)COc2ccccc2)CC1 (stereo not given)	8 µM	5 µM	3.4 µM	38 µM	–
COc1cc(C(F)(F)F)ccc1COCC(O)CN1CCC(N2Cc3ccccc3C2=O)CC1.O=C(O)/C=C/C(=O)O (stereo not given)	1.5 µM	0.79 µM	1.2 µM	6.1 µM	IC50 [5]: 0.67 µM; Tmax [6]: 30 min; AUC [7]: 1.91 µg·h/mL; Fu (Plasma): 5.55%; Cmax [8]: 0.445 µg/mL; ED50 (Mus musculus [9]): 10 mg/kg; Activity (Mus musculus [15]): Toxic
O=C(c1ccccc1)c1ccccc1OCC(O)CN1CCC(n2c(=O)oc3ccccc32)CC1 (stereo not given)	5.4 µM	3.1 µM	1.8 µM	3.4 µM	–
O=C(c1ccccc1)c1ccc(OCC(O)CN2CCC(N3Cc4ccccc4C3=O)CC2)cc1 (stereo not given)	0.67 µM	0.59 µM	0.38 µM	1.2 µM	–
O=C1c2ccccc2CN1C1CCN(CC(O)COc2ccccc2C(F)(F)F)CC1 (stereo not given)	4.5 µM	4.8 µM	2.8 µM	7.1 µM	–
O=C1CCc2c(cccc2N2CCN(CC(O)COc3ccccc3C(=O)c3ccccc3)CC2)N1 (stereo not given)	21 µM	2.4 µM	3.7 µM	17 µM	–
O=C(c1ccccc1)c1ccccc1OCC(O)CN1CCC(N2Cc3ccccc3C2=O)CC1 (stereo not given)	3.3 µM	1.2 µM	1.5 µM	24 µM	IC50 [5]: 3.1 µM; Tmax [12]: 30 min; Cmax [13]: 0.016 µg/mL; AUC [14]: 0.018 µg·h/mL
O=C(Nc1ccccc1)C1CCN(CC(O)COc2ccc(C(F)(F)F)cc2)CC1 (stereo not given)	3.1 µM	0.8 µM	1 µM	3.4 µM	–
O=C1COc2c(cccc2N2CCN(CC(O)COc3ccccc3C(=O)c3ccccc3)CC2)N1 (stereo not given)	> 33 µM	5 µM	3.9 µM	20 µM	–
COc1ccccc1OCC(O)CN1CCC(N2Cc3ccccc3C2=O)CC1 (stereo not given)	19 µM	4.8 µM	5.3 µM	77 µM	IC50 [5]: 34 µM; Tmax [12]: 30 min; Cmax [13]: 0.467 µg/mL; ED50 (Mus musculus [9]): 7 mg/kg; AUC [14]: 0.692 µg·h/mL; ID50 (Mus musculus [10]): 20 mg/kg; selectivity ratio [11]: 2.9
O=C1c2ccccc2CN1C1CCN(CC(O)COc2cccc(C(F)(F)F)c2)CC1 (stereo not given)	1.2 µM	0.79 µM	1 µM	4.4 µM	–
